Measured values taken from ChEMBL document CHEMBL4406883, “Synthesis and structure-activity relationships of novel camphecene analogues as anti-influenza agents” (Bioorg Med Chem Lett, 2019).
Activity calls are given as the source filed them. No cut-off for these calls is given here.

Assays:
[1] = tested on: Influenza A virus (A/Puerto Rico/8/1934(H1N1)); assay type: functional, organism-based, pdm09
in vitro = conditions: dog, MDCK cells
Description: Selectivity index, ratio of CTD50 for dog MDCK cells to IC50 for Influenza A virus (A/Puerto Rico/8/34 (H1N1)) pdm09 infected in MDCK cells

[2] = Cytotoxicity against dog MDCK cells assessed as cell death incubated for 48 hrs by MTT assay; assay type: cell-based, Canis lupus familiaris; conditions: read-out: CTD50
[3] = tested on: Influenza A virus (A/Puerto Rico/8/1934(H1N1)); assay type: functional, organism-based; conditions: pdm09, 300 umol/l
[4] = tested on: Influenza A virus (A/Puerto Rico/8/1934(H1N1)); assay type: functional, organism-based; conditions: pdm09, 300 umol/l; remark: listed apart in the source
[5] = Influenza A virus, pdm09, MDCK, read-out: IC50

CC1(C)[C@@H]2CC[C@@]1(C)/C(=N/CCN1CCCCC1)C2
IC50 [1, 5]: 27 µM | selectivity ratio (in vitro): 43 | CC50 at 48 h [2]: > 1140 µM

CC1(C)[C@@H]2CC[C@@]1(C)/C(=N/CCSc1nnc[nH]1)C2
IC50 [1, 5]: 24 µM | selectivity ratio (in vitro): 8 | CC50 at 48 h [2]: 197 µM

CC1(C)[C@@H]2CC[C@@]1(C)/C(=N/CCO)C2
IC50 [1, 5]: 5000 µM | selectivity ratio (in vitro): 500

CC1(C)[C@@H]2CC[C@@]1(C)/C(=N/CCN1CCNCC1)C2
IC50 [1, 5]: 37 µM | selectivity ratio (in vitro): 33 | CC50 at 48 h [2]: 1200 µM

NC(=O)c1ncn([C@@H]2O[C@H](CO)[C@@H](O)[C@H]2O)n1 [RIBAVIRIN]
IC50 [1, 5]: 25 µM | selectivity ratio (in vitro): > 81 | CC50 at 48 h [2]: > 2000 µM

CCN1CCN(CC/N=C2\C[C@H]3CC[C@]2(C)C3(C)C)CC1
IC50 [1, 5]: 101 µM | selectivity ratio (in vitro): 2 | CC50 at 48 h [2]: 222 µM

CC1(C)[C@@H]2CC[C@@]1(C)/C(=N/CCSc1ccccn1)C2
IC50 [1, 5]: 6 µM | selectivity ratio (in vitro): 91 | CC50 at 48 h [2]: 503 µM

CC1(C)[C@@H]2CC[C@@]1(C)/C(=N/CCSc1ccc(Cl)cc1)C2
IC50 [1, 5]: 47 µM | selectivity ratio (in vitro): 4 | CC50 at 48 h [2]: 170 µM

CC1(C)[C@@H]2CC[C@@]1(C)/C(=N/CCSc1ncccn1)C2
IC50 [1, 5]: 6 µM | inhibition [3]: inactive | selectivity ratio (in vitro): 183 | inhibition [4]: Active | CC50 at 48 h [2]: > 1020 µM

CC1(C)[C@@H]2CC[C@@]1(C)/C(=N/CCN1CCCC1)C2
IC50 [1, 5]: 12 µM | selectivity ratio (in vitro): 106 | CC50 at 48 h [2]: > 1260 µM

CC1(C)[C@@H]2CC[C@@]1(C)/C(=N/CCSc1nc3ccccc3[nH]1)C2
IC50 [1, 5]: 21 µM | selectivity ratio (in vitro): 20 | CC50 at 48 h [2]: 406 µM

CC(N)C12CC3CC(CC(C3)C1)C2 (stereo unspecified) [RIMANTADINE]
IC50 [1, 5]: 67 µM | selectivity ratio (in vitro): 5

NC12CC3CC(CC(C3)C1)C2 [AMANTADINE]
IC50 [1, 5]: 64 µM | selectivity ratio (in vitro): 4

CC1(C)[C@@H]2CC[C@@]1(C)/C(=N/CCSC1=NCCS1)C2
IC50 [1, 5]: 33 µM | selectivity ratio (in vitro): 23 | CC50 at 48 h [2]: 753 µM

CC1CCN(CC/N=C2\C[C@H]3CC[C@]2(C)C3(C)C)CC1
IC50 [1, 5]: 25 µM | selectivity ratio (in vitro): 12 | CC50 at 48 h [2]: 294 µM

CN1CCN(CC/N=C2\C[C@H]3CC[C@]2(C)C3(C)C)CC1
IC50 [1, 5]: 45 µM | selectivity ratio (in vitro): 24 | CC50 at 48 h [2]: 1080 µM

CC1(C)[C@@H]2CC[C@@]1(C)/C(=N/CCSc1nc3ccccc3s1)C2
IC50 [1, 5]: 19 µM | selectivity ratio (in vitro): 20 | CC50 at 48 h [2]: 383 µM

CC1(C)[C@@H]2CC[C@@]1(C)/C(=N/CCN1CCC(O)CC1)C2
IC50 [1]: Not Active | selectivity ratio (in vitro): 1 | CC50 at 48 h [2]: > 1030 µM

Cn1ccnc1SCC/N=C1\C[C@H]2CC[C@]1(C)C2(C)C
IC50 [1, 5]: 341 µM | selectivity ratio (in vitro): 3 | CC50 at 48 h [2]: 1130 µM
